How the values were obtained:
Test in all cases: Test E pre-/postemergence plant response
Type in all cases: in vivo
[1] = system: surinam grass (Brachiaria decumbens); details: scale 0 to 100
In short: (§1)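 Seeds were planted and treated preemergence with compound formulated in a non-phytotoxic solvent mixture containing surfactant; postemergence sprays in the same formulation went onto plants 2 to 18 cm tall (1- to 4-leaf stage). After 14 to 21 days in a greenhouse, injury versus untreated controls was rated visually, 0 (no effect) to 100 (complete control).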

[2] = system: naked crabgrass (Digitaria nuda); details: scale 0 to 100
In short: as §1

[3] = system: purple nutsedge (Cyperus rotundus); details: scale 0 to 100
In short: as §1

[4] = system: common groundsel (Senecio vulgaris); details: scale 0 to 100
In short: as §1

[5] = system: johnsongrass (Sorghum halepense); details: scale 0 to 100
In short: as §1

[6] = system: itchgrass (Rottboellia cochinchinensis); details: scale 0 to 100
In short: as §1

[7] = system: barnyardgrass (Echinochloa crus-galli)
In short: as §1

[8] = system: dallisgrass (Paspalum dilatatum); details: scale 0 to 100
In short: as §1

[9] = system: green foxtail (Setaria viridis); details: scale 0 to 100
In short: as §1

[10] = system: guineagrass (Panicum maximum); details: scale 0 to 100
In short: as §1

[11] = system: prickly sida (Sida spinosa); details: scale 0 to 100
In short: as §1

[12] = system: kochia (Kochia scoparia); details: scale 0 to 100
In short: as §1

[13] = system: annual bluegrass (Poa annua); details: scale 0 to 100
In short: as §1

[14] = system: southern (S.) sandbur (Cenchrus echinatus); details: scale 0 to 100
In short: as §1

[15] = system: Italian ryegrass (Lolium multiflorum); details: scale 0 to 100
In short: as §1

[16] = system: common purslane (Portulaca oleracea); details: scale 0 to 100
In short: as §1

[17] = system: common mallow (Malva sylvestris); details: scale 0 to 100
In short: as §1

[18] = system: Russian thistle (Salsola kali); details: Preemergence, 4 g ai/ha; scale 0 to 100
In short: as §1

CCc1cc(-c2ccc(C(F)(F)F)cc2)nn1-c1c(OC(=O)OC(C)C)cnn(C)c1=O [Compound 12] was tested. Which “Plant response rating, Surinam Grass” value ([1]; 4 g ai/ha, Postemergence) did it give?
Its value is 35.

What about the “Plant response rating, Surinam Grass” value ([1]; 31 g ai/ha, Preemergence) of the same compound?
The value was 95.

What about the “Plant response rating, Surinam Grass” value ([1]; Postemergence, 8 g ai/ha) of the same compound?
Its value is 90.

And the “Plant response rating, Surinam Grass” value ([1]; Postemergence, 31 g ai/ha)?
Its value is 98.

What about the “Plant response rating, Surinam Grass” value ([1]; Preemergence, 4 g ai/ha) of the same compound?
The value was 0.

And the “Plant response rating, Crabgrass, Naked” value ([2]; 4 g ai/ha, Postemergence)?
Its value is 50.

And the “Plant response rating, Crabgrass, Naked” value ([2]; 8 g ai/ha, Preemergence)?
Its value is 95.

And the “Plant response rating, Crabgrass, Naked” value ([2]; 31 g ai/ha, Preemergence)?
The value was 100.

What about the “Plant response rating, Crabgrass, Naked” value ([2]; Postemergence, 8 g ai/ha) of the same compound?
Its value is 90.

What about the “Plant response rating, Crabgrass, Naked” value ([2]; Postemergence, 31 g ai/ha) of the same compound?
Its value is 95.

What about the “Plant response rating, Crabgrass, Naked” value ([2]; Preemergence, 4 g ai/ha) of the same compound?
Its value is 15.

And the “Plant response rating, Nutsedge, Purple” value ([3]; 4 g ai/ha, Postemergence)?
Its value is 0.

What about the “Plant response rating, Nutsedge, Purple” value ([3]; 31 g ai/ha, Preemergence) of the same compound?
Its value is 0.

What about the “Plant response rating, Nutsedge, Purple” value ([3]; Postemergence, 8 g ai/ha) of the same compound?
The value was 0.

What about the “Plant response rating, Nutsedge, Purple” value ([3]; Postemergence, 31 g ai/ha) of the same compound?
The value was 0.

And the “Plant response rating, Groundsel” value ([4]; 4 g ai/ha, Postemergence)?
The value was 0.

What about the “Plant response rating, Groundsel” value ([4]; 31 g ai/ha, Preemergence) of the same compound?
The value was 0.

And the “Plant response rating, Groundsel” value ([4]; Postemergence, 8 g ai/ha)?
The value was 0.

What about the “Plant response rating, Groundsel” value ([4]; Postemergence, 31 g ai/ha) of the same compound?
Its value is 0.

What about the “Plant response rating, Groundsel” value ([4]; Preemergence, 4 g ai/ha) of the same compound?
Its value is 0.

And the “Plant response rating, Johnsongrass” value ([5]; 4 g ai/ha, Postemergence)?
Its value is 95.

What about the “Plant response rating, Johnsongrass” value ([5]; 31 g ai/ha, Preemergence) of the same compound?
Its value is 95.

What about the “Plant response rating, Johnsongrass” value ([5]; Postemergence, 8 g ai/ha) of the same compound?
The value was 95.

What about the “Plant response rating, Johnsongrass” value ([5]; Postemergence, 31 g ai/ha) of the same compound?
Its value is 95.

And the “Plant response rating, Johnsongrass” value ([5]; Preemergence, 4 g ai/ha)?
Its value is 75.

And the “Plant response rating, Itchgrass” value ([6]; 4 g ai/ha, Postemergence)?
Its value is 0.

What about the “Plant response rating, Itchgrass” value ([6]; 31 g ai/ha, Preemergence) of the same compound?
Its value is 80.

What about the “Plant response rating, Itchgrass” value ([6]; Postemergence, 8 g ai/ha) of the same compound?
The value was 50.

What about the “Plant response rating, Itchgrass” value ([6]; Postemergence, 31 g ai/ha) of the same compound?
Its value is 95.

And the “Plant response rating, Itchgrass” value ([6]; Preemergence, 4 g ai/ha)?
The value was 20.

What about the “Plant response rating, Barnyardgrass” value ([7]; 4 g ai/ha, Postemergence, scale 0 to 100) of the same compound?
The value was 90.

And the “Plant response rating, Barnyardgrass” value ([7]; 8 g ai/ha, Preemergence, scale 0 to 100)?
Its value is 70.

And the “Plant response rating, Barnyardgrass” value ([7]; 31 g ai/ha, Preemergence, scale 0 to 100)?
The value was 95.

What about the “Plant response rating, Barnyardgrass” value ([7]; Postemergence, 8 g ai/ha, scale 0 to 100) of the same compound?
Its value is 100.

What about the “Plant response rating, Barnyardgrass” value ([7]; Postemergence, 31 g ai/ha, scale 0 to 100) of the same compound?
The value was 100.

And the “Plant response rating, Barnyardgrass” value ([7]; Preemergence, 4 g ai/ha, scale 0 to 100, 0 no effect, 100 complete control)?
Its value is 20.

And the “Plant response rating, Dallisgrass” value ([8]; 4 g ai/ha, Postemergence)?
The value was 65.

What about the “Plant response rating, Dallisgrass” value ([8]; 8 g ai/ha, Preemergence) of the same compound?
Its value is 40.

What about the “Plant response rating, Dallisgrass” value ([8]; 31 g ai/ha, Preemergence) of the same compound?
Its value is 100.

What about the “Plant response rating, Dallisgrass” value ([8]; Postemergence, 8 g ai/ha) of the same compound?
The value was 75.

What about the “Plant response rating, Dallisgrass” value ([8]; Postemergence, 31 g ai/ha) of the same compound?
Its value is 85.

And the “Plant response rating, Dallisgrass” value ([8]; Preemergence, 4 g ai/ha)?
Its value is 0.

And the “Plant response rating, Foxtail, Green” value ([9]; 4 g ai/ha, Postemergence)?
The value was 30.

What about the “Plant response rating, Foxtail, Green” value ([9]; 8 g ai/ha, Preemergence) of the same compound?
Its value is 60.

What about the “Plant response rating, Foxtail, Green” value ([9]; 31 g ai/ha, Preemergence) of the same compound?
The value was 100.

What about the “Plant response rating, Foxtail, Green” value ([9]; Postemergence, 8 g ai/ha) of the same compound?
Its value is 90.

What about the “Plant response rating, Foxtail, Green” value ([9]; Postemergence, 31 g ai/ha) of the same compound?
The value was 100.

What about the “Plant response rating, Foxtail, Green” value ([9]; Preemergence, 4 g ai/ha) of the same compound?
The value was 0.

What about the “Plant response rating, Guineagrass” value ([10]; 4 g ai/ha, Postemergence) of the same compound?
Its value is 95.

What about the “Plant response rating, Guineagrass” value ([10]; 31 g ai/ha, Preemergence) of the same compound?
Its value is 100.

What about the “Plant response rating, Guineagrass” value ([10]; Postemergence, 8 g ai/ha) of the same compound?
The value was 95.

What about the “Plant response rating, Guineagrass” value ([10]; Postemergence, 31 g ai/ha) of the same compound?
Its value is 95.

What about the “Plant response rating, Guineagrass” value ([10]; Preemergence, 4 g ai/ha) of the same compound?
The value was 0.

What about the “Plant response rating, Prickly Sida” value ([11]; 4 g ai/ha, Postemergence) of the same compound?
Its value is 0.

What about the “Plant response rating, Prickly Sida” value ([11]; 31 g ai/ha, Preemergence) of the same compound?
Its value is 0.

What about the “Plant response rating, Prickly Sida” value ([11]; Postemergence, 8 g ai/ha) of the same compound?
Its value is 0.

And the “Plant response rating, Prickly Sida” value ([11]; Postemergence, 31 g ai/ha)?
Its value is 0.

What about the “Plant response rating, Prickly Sida” value ([11]; Preemergence, 4 g ai/ha) of the same compound?
Its value is 0.

And the “Plant response rating, Kochia” value ([12]; 4 g ai/ha, Postemergence)?
Its value is 0.

What about the “Plant response rating, Kochia” value ([12]; 31 g ai/ha, Preemergence) of the same compound?
Its value is 0.

And the “Plant response rating, Kochia” value ([12]; Postemergence, 8 g ai/ha)?
The value was 0.

What about the “Plant response rating, Kochia” value ([12]; Postemergence, 31 g ai/ha) of the same compound?
Its value is 0.

What about the “Plant response rating, Kochia” value ([12]; Preemergence, 4 g ai/ha) of the same compound?
The value was 0.

What about the “Plant response rating, Bluegrass” value ([13]; 4 g ai/ha, Postemergence) of the same compound?
The value was 0.

And the “Plant response rating, Bluegrass” value ([13]; 8 g ai/ha, Preemergence)?
Its value is 0.

What about the “Plant response rating, Bluegrass” value ([13]; 31 g ai/ha, Preemergence) of the same compound?
The value was 0.

And the “Plant response rating, Bluegrass” value ([13]; Postemergence, 8 g ai/ha)?
The value was 0.

What about the “Plant response rating, Bluegrass” value ([13]; Postemergence, 31 g ai/ha) of the same compound?
The value was 0.

And the “Plant response rating, Bluegrass” value ([13]; Preemergence, 4 g ai/ha)?
Its value is 0.

What about the “Plant response rating, Sandbur, S.” value ([14]; 4 g ai/ha, Postemergence) of the same compound?
Its value is 90.

And the “Plant response rating, Sandbur, S.” value ([14]; 31 g ai/ha, Preemergence)?
The value was 95.

What about the “Plant response rating, Sandbur, S.” value ([14]; Postemergence, 8 g ai/ha) of the same compound?
The value was 98.

What about the “Plant response rating, Sandbur, S.” value ([14]; Postemergence, 31 g ai/ha) of the same compound?
The value was 100.

And the “Plant response rating, Sandbur, S.” value ([14]; Preemergence, 4 g ai/ha)?
Its value is 0.

What about the “Plant response rating, Ryegrass, Italian” value ([15]; 4 g ai/ha, Postemergence) of the same compound?
Its value is 75.

And the “Plant response rating, Ryegrass, Italian” value ([15]; 31 g ai/ha, Preemergence)?
The value was 98.

What about the “Plant response rating, Ryegrass, Italian” value ([15]; Postemergence, 8 g ai/ha) of the same compound?
The value was 100.

And the “Plant response rating, Ryegrass, Italian” value ([15]; Postemergence, 31 g ai/ha)?
Its value is 100.

And the “Plant response rating, Ryegrass, Italian” value ([15]; Preemergence, 4 g ai/ha)?
Its value is 40.

And the “Plant response rating, Purslane” value ([16]; 4 g ai/ha, Postemergence)?
Its value is 0.

What about the “Plant response rating, Purslane” value ([16]; 31 g ai/ha, Preemergence) of the same compound?
Its value is 0.

What about the “Plant response rating, Purslane” value ([16]; Postemergence, 8 g ai/ha) of the same compound?
Its value is 0.

What about the “Plant response rating, Purslane” value ([16]; Postemergence, 31 g ai/ha) of the same compound?
The value was 0.

And the “Plant response rating, Purslane” value ([16]; Preemergence, 4 g ai/ha)?
Its value is 0.

What about the “Plant response rating, Mallow” value ([17]; 4 g ai/ha, Postemergence) of the same compound?
Its value is 0.

What about the “Plant response rating, Mallow” value ([17]; 31 g ai/ha, Preemergence) of the same compound?
Its value is 0.

What about the “Plant response rating, Mallow” value ([17]; Postemergence, 8 g ai/ha) of the same compound?
Its value is 0.

And the “Plant response rating, Mallow” value ([17]; Postemergence, 31 g ai/ha)?
The value was 0.

What about the “Plant response rating, Mallow” value ([17]; Preemergence, 4 g ai/ha) of the same compound?
Its value is 0.

And the “Plant response rating, Thistle, Russian” value [18]?
The value was 0.
